Laboratory results as given in article PMC11859264, “Discovery of a Novel Multitarget Analgesic Through an In Vivo-Guided Approach” (Pharmaceuticals, 2025).

What was measured:
Cytotoxicity assay (MTT) = assay type: cell-based; settings: mouse, HT-22 hippocampal neuronal cells, HT-22 cells, read-out: cell viability relative to the untreated control group
Protocol: In the in vitro toxicity study, we initially evaluated the cytotoxic potential of compound 29 using a hippocampal neuronal cell line (HT-22), a commonly used model for assessing neurotoxicity. Cell viability was determined after exposure to compound 29 at a concentration of 10 μM.
HT-22 (mouse hippocampal cells) were cultured in Dulbecco’s Modified Eagle’s Medium (DMEM, GIBCO) supplemented with 10% (v/v) fetal bovine serum and antibiotics (100 µg/mL penicillin/streptomycin mix) in a humidified atmosphere at 37 °C with 5% CO2. A total of 5000 HT-22 cells per well were seeded into a clear 96-well plate one day prior to the assay. On the day of the experiment, the medium was removed, and the cells were treated with 25 µL of each compound at a concentration of 10 µM. The plates were incubated at 37 °C for 18 h. Subsequently, 15 µL of 3-[4,5-dimethylthiazol-2-yl]-2,5-diphenyltetrazolium bromide (MTT) solution (5 mg/mL) was added to each well, and the plates were incubated for an additional 3 h. The resulting formazan crystals were dissolved in dimethyl sulfoxide (DMSO), and the absorbance at 570 nm was measured using a microplate reader (Sunrise, TECAN). Optical density (OD) values from each well were normalized by subtracting the vehicle control, and cell viability was calculated by considering the signal from the vehicle control as 100%.

[1] = Metabolic stability assay in liver microsomes; assay type: in vitro ADME; settings: 30 min
Protocol: In the in vitro metabolic stability study, the stability of compound 29 was evaluated using liver microsomes derived from both mouse and human sources. The primary objectives of this study were to determine the metabolic clearance rate of compound 29 over a defined time period, enabling an assessment of its intrinsic clearance. Microsomal incubations were performed, and the percentage of intact compound remaining was quantified at specific time points. […] The remaining substrate was quantified using the Nexera XR system (Shimadzu, Japan) and TSQ Vantage mass spectrometer (Thermo, Waltham, MA, USA). […] Metabolites were analyzed using the Multiple Reaction Monitoring (MRM) quantification mode in the Xcalibur software (version 4.4). The experiment was performed in duplicate with variability within 15%. Results were calculated as % remaining by comparing the test compound quantified after a 30 min reaction to the initial value at 0 min.

[2] = system: panel of 47 drug target molecules; test: Screening against a panel of pain-related drug targets at 10 μM; assay type: binding
Protocol: To elucidate the mechanism of action of compound 29 in producing analgesic effects, its inhibitory effects were systematically evaluated through a screening process. The compound was tested at a concentration of 10 μM against a diverse panel of 47 drug target molecules that are closely associated with pain modulation pathways.
The screening of pain-related receptors for the mechanism of action study of compound 29 was conducted by outsourcing the experiment to Eurofins (https://www.eurofins.com, accessed on 30 July 2024). Methods employed in this study have been adapted from the scientific literature to maximize reliability and reproducibility. Reference standards were run as an integral part of each assay to ensure the validity of the results obtained. […] Where presented, IC50 values were determined by a non-linear, least squares regression analysis using MathIQTM (ID Business Solutions Ltd., Woking, Surrey, UK). Where inhibition constants (Ki) are presented, the Ki values were calculated using the equation of Cheng and Prusoff using the observed IC50 of the tested compound, the concentration of radioligand (*) employed in the assay, and the historical values for the KD of the ligand (obtained experimentally at Eurofins Panlabs, Inc.). Where presented, the Hill coefficient (nH), defining the slope of the competitive binding curve, was calculated using MathIQTM.

hERG [3] = target: T1, hERG (Homo sapiens, UniProt Q12809); test: biochemical
CYP2C9 = CYP2C9 (Homo sapiens, UniProt P11712); test: in vitro; settings: microsomes, pH 7.4, CYP2C9 % of inhibition
[4] = target: T2, Transporter, Norepinephrine (NET) (Homo sapiens, UniProt P23975); test: Radioligand binding, [125I] RTI-55, Eurofins
T2 construct: host or cells: MDCK cells

[5] = target: T3, Transporter, Serotonin (SERT) (Homo sapiens, UniProt P31645); test: Radioligand binding, [3H] Paroxetine, Eurofins
T3 construct: host or cells: HEK-293 cells

Serotonin 5-HT2A = Serotonin 5-HT2A (Homo sapiens, UniProt P28223); test: Radioligand binding, [3H] Ketanserin, Eurofins
hERG [6] = target: T1, hERG; test: in vitro
Adrenergic α2A = target: T4, Adrenergic α2A (Homo sapiens, UniProt P08913); test: Radioligand binding, [3H] Rauwolscine, Eurofins
T4 sequence (P08913 1-465): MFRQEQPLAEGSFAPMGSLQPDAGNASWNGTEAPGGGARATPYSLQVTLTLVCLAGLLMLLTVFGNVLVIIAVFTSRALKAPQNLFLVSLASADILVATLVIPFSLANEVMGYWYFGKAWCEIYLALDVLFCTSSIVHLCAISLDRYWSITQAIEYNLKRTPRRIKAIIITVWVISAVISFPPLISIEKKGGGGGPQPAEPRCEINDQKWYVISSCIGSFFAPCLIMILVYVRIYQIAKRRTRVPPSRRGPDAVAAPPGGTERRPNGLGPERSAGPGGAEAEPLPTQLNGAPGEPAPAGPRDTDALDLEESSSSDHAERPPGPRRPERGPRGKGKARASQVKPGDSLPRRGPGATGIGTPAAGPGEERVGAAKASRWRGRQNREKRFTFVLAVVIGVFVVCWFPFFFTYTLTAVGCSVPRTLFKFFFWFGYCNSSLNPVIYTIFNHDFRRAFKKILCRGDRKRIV

CYP2C19 = CYP2C19 (Homo sapiens, UniProt P33261); test: in vitro; settings: microsomes, pH 7.4, CYP2C19 % of inhibition
Dopamine D2L = target: T5, Dopamine D2L (Homo sapiens, UniProt P14416); test: Radioligand binding, [3H] Spiperone, Eurofins
T5 construct: host or cells: CHO cells
T5 sequence (P14416 whole entry): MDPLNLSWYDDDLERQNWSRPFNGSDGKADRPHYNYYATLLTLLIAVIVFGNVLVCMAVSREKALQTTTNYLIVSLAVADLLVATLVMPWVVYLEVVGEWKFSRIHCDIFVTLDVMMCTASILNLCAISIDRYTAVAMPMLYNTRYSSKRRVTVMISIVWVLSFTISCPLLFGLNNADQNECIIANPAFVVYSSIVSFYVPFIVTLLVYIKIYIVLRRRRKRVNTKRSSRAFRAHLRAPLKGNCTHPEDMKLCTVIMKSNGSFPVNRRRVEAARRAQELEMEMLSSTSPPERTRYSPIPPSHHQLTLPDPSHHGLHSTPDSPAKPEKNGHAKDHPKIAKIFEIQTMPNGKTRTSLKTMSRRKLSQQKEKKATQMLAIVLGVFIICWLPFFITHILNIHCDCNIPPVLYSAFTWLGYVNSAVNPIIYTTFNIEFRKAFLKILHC

T3 sequence (P31645 whole entry): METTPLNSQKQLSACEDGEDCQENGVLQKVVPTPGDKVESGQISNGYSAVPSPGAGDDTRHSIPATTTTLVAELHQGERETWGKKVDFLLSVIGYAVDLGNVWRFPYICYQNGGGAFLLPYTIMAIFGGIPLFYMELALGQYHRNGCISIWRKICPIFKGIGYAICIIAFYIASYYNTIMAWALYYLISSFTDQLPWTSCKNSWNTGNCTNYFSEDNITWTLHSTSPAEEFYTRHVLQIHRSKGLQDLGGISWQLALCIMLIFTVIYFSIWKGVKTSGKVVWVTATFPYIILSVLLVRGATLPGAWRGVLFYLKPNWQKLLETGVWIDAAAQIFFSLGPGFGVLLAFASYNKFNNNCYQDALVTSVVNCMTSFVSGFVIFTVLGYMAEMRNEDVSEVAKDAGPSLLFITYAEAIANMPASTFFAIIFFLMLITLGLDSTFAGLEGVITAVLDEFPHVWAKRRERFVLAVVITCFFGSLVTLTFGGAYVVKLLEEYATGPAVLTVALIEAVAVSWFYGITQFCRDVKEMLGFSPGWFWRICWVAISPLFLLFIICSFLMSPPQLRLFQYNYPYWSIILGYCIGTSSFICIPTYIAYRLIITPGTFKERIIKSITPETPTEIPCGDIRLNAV
Serotonin 5-HT2A, sequence (P28223 whole entry): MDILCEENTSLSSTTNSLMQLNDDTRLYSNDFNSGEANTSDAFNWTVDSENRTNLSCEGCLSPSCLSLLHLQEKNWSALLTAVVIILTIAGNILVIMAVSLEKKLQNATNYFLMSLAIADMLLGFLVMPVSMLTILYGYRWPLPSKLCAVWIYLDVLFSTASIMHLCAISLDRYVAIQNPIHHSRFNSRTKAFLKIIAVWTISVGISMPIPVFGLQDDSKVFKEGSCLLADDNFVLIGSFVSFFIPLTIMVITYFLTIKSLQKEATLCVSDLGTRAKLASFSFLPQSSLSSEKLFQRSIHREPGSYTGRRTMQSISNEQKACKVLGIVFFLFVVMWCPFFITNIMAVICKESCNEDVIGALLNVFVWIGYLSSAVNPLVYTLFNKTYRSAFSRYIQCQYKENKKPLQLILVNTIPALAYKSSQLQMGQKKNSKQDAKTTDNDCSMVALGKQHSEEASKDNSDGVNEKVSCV
T2 sequence (P23975 whole entry): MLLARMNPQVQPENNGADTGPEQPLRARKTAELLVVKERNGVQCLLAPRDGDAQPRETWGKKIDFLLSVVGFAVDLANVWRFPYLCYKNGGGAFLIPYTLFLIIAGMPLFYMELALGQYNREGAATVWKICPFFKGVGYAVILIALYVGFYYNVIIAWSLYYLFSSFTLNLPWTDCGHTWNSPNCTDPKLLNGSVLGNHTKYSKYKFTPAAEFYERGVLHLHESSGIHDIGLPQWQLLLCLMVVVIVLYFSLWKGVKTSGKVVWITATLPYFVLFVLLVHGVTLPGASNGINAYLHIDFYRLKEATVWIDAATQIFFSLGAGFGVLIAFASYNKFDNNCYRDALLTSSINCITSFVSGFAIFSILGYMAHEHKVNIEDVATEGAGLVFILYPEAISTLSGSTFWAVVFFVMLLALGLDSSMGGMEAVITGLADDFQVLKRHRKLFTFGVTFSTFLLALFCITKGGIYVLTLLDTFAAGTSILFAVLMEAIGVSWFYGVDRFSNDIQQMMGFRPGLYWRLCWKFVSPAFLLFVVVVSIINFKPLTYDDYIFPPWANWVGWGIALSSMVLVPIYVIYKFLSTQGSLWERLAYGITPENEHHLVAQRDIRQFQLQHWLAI
T1 sequence (Q12809 whole entry): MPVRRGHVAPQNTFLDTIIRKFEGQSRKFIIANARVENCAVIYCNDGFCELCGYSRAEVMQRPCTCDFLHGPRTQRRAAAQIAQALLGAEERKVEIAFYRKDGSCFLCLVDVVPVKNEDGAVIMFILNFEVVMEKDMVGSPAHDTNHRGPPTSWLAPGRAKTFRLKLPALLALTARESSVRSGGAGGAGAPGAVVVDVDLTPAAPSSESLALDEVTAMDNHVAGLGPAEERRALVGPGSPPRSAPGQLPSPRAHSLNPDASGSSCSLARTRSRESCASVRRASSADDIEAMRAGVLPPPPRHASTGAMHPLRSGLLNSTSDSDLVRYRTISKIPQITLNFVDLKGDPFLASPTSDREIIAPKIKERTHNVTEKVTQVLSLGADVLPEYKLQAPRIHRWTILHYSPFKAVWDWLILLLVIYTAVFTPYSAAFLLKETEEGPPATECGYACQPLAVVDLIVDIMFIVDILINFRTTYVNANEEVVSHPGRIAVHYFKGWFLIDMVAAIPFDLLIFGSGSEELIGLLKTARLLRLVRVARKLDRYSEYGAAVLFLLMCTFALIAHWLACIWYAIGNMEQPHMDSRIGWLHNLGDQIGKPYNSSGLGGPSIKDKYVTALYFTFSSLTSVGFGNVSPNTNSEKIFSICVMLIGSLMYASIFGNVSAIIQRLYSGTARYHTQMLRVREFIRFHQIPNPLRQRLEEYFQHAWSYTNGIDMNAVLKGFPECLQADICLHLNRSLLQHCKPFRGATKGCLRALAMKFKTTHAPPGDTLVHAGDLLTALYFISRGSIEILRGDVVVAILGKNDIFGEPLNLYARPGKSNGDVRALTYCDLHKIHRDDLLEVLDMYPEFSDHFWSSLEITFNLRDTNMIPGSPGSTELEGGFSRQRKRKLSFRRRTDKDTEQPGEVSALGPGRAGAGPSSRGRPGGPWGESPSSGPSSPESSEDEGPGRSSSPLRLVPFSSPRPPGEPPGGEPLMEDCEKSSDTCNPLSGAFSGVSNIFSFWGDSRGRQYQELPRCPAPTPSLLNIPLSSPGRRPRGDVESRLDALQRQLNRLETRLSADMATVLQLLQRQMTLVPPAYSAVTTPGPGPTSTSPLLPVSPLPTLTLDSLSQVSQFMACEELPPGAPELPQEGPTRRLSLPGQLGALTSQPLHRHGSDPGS
CYP2C19, sequence (P33261 whole entry): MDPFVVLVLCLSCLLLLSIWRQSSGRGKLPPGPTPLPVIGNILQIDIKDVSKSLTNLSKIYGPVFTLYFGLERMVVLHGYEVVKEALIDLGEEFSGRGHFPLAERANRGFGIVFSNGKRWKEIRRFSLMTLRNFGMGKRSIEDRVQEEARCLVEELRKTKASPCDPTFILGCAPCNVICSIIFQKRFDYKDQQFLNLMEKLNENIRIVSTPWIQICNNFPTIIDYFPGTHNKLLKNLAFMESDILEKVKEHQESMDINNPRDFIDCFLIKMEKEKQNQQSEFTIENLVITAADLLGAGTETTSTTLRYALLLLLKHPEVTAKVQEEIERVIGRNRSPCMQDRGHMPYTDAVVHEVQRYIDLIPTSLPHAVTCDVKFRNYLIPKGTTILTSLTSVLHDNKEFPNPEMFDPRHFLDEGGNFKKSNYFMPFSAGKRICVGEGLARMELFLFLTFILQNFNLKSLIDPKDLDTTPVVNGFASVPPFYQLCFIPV
CYP2C9, sequence (P11712 whole entry): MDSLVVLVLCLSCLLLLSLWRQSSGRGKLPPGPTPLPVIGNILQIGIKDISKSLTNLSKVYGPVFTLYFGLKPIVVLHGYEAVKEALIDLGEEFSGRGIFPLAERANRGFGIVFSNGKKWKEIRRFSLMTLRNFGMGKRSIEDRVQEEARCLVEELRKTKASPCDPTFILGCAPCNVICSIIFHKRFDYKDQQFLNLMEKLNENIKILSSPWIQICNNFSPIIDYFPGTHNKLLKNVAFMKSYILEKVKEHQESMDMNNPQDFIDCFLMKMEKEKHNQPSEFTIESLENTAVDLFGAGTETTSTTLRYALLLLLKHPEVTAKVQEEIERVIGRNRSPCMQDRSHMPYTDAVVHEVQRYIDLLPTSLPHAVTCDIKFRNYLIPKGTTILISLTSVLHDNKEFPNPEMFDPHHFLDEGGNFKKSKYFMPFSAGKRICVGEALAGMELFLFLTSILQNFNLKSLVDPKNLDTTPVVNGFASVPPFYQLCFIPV

With `N#Cc1ccc2[nH]cc(C(=O)NCCN3CCN(c4ccc5ccccc5n4)CC3)c2c1` [Compound 29, 5-Cyano-N-(2-(4-(quinolin-2-yl)piperazin-1-yl)ethyl)-1H-indole-3-carboxamide] the viability at 18 h, 10 µM (Cytotoxicity assay (MTT)) was > 100%, the remaining at 0.5 h, 1 µM ([1]; pH 7.4, human liver microsomes) was 55.6% and the remaining at 0.5 h, 1 µM ([1]; pH 7.4, mouse liver microsomes) was 51.2%. For the same compound, the “number of targets with more than 50% inhibition” value [2] was 16, the IC50 (hERG [3]) was ~10000 nM and the inhibition at 15 min, 10 µM (CYP2C9) was < 50%. For the same compound, the “nH (Hill coefficient)” value ([4]; NET) was 0.73, the Ki ([4]; NET, Cheng and Prusoff) was 380 nM and the IC50 ([4]; NET, human recombinant MDCK cells) was 380 nM. For the same compound, the “times more potent at NET compared to desipramine” value ([4]; ratio of Ki values) was 3, the “nH (Hill coefficient)” value ([5]; SERT) was 0.84 and the Ki ([5]; SERT, Cheng and Prusoff) was 130 nM. For the same compound, the IC50 ([5]; SERT, human recombinant HEK-293 cells) was 780 nM, the “times more potent at SERT compared to fluoxetine” value ([5]; ratio of Ki values) was 13 and the “nH (Hill coefficient)” value (Serotonin 5-HT2A; Serotonin 5-HT2A) was 0.88. The Ki (Serotonin 5-HT2A; Serotonin 5-HT2A, Cheng and Prusoff) was 150 nM, the IC50 (Serotonin 5-HT2A; Serotonin 5-HT2A, human recombinant CHO-Ki cells) was 520 nM and the “times the activity of reference compound ketanserin” value (Serotonin 5-HT2A; ratio of Ki values) was 1.53. For the same compound, the inhibition at 4 h, 10 µM (hERG [6]) was 52.7%, the “nH (Hill coefficient)” value (Adrenergic α2A; Adrenergic α2A) was 1.02 and the Ki (Adrenergic α2A; Adrenergic α2A, Cheng and Prusoff) was 4110 nM. For the same compound, the IC50 (Adrenergic α2A; Adrenergic α2A, human recombinant CHO-Ki cells) was 8220 nM, the “times the activity of reference compound yohimbine” value (Adrenergic α2A; ratio of Ki values) was 0.25 and the inhibition at 15 min, 10 µM (CYP2C19) was < 50%. The “nH (Hill coefficient)” value (Dopamine D2L; Dopamine D2L) was 0.86, the Ki (Dopamine D2L; Dopamine D2L, Cheng and Prusoff) was 1850 nM and the IC50 (Dopamine D2L; Dopamine D2L, human recombinant CHO cells) was 5540 nM. The “times the activity of reference compound spiperone” value (Dopamine D2L; ratio of Ki values) was 0.02.
